Assay results reported in patent US7943599B2 (priority 2005, dated 2011).
Read-outs that look alike come from different tables or passages of the source.

How the values were obtained:
[1] = test system: Human keratinocytes (HaCat); format: cell-based; conditions: for Malonaldehyde and 4-hydroxy alkenal: HaCat, untreated group taken as 100
Experimental: Human keratinocytes (HaCat) were plated at a density of 1.0×10^6 per 60-mm dish and then cultured in penicillin/streptomycin-containing DMEM (10% FBS) media at conditions of 37° C. and 5% CO2 for 1 week. Then, the culture media were treated with 10^−4 M of each of sesamol, the sesamol derivative of Example 1, and tocopherol as appositive control, for 24 hours. At the next day, the media were treated with 4 mM of t-BHP (t-butyl hydroperoxide) together with each of said compounds and then cultured at conditions of 37° C. and 5% CO2 for 4 hours, after which the cells were collected. The collected cells were dissolved by repeatedly performing freezing/thawing processes, and the following tests were performed in accordance with the method described in an assay kit.
In other words, in the present invention, a lipid peroxide assay kit (Calbiochem) was used as a reagent, and lipid peroxidation was measured using the principle in which long-chain unsaturated fatty acids such as malonaldehyde and 4-hydroxy alkenal form stable compounds at 586 nm by reaction with said reagent. The measurement results are shown in Table 1 below in comparison with an untreated group taken as 100.

[2] = test system: alkaline phosphatase; test: Hydrolysis by phosphatase in phosphate buffer, HPLC of 3-aminopropane phosphoric acid formed; format: in vitro ADME; conditions: alkaline phosphatase (Sigma-Aldrich), phosphate buffer pH 7.4, HPLC, FIG. 1
Experimental: In order to examine whether the sesamol, 3-aminopropane phosphoric acid diester is hydrolyzed by phosphatase present on the skin into sesamol and 3-aminopropane phosphoric acid, the following test was performed. The sesamol, 3-aminopropane phosphoric acid diester of Example 1 and phsophatase were added in phosphate buffer (pH 7.4), followed by hydrolysis. As the phosphatase, alkaline phosphatase commercially available from Sigma-Aldrich Co. was used. The amount of 3-aminopropane phosphoric acid formed as the hydrolysis progressed was measured by HPLC (high-performance liquid chromatography), and the measurement results are shown in FIG. 1.

[3] = test system: Fibroblasts; format: cell-based; conditions: 10^-4 M; for Procollagen Synthesis (%): 24 h, serum-free media, untreated group taken as 100%
Experimental: Fibroblasts were seeded into each well of a 24-well plate at density of 10^6 cells and cultured to 90% confluence. The cultured cells were cultured in serum-free media for 24 hours and then treated with 10^−4 M of each of tocopherol, sesamol and the sesamol derivative of Example 1, which have been dissolved in serum-free media. Then, the cells were cultured in a CO2 incubator for 24 hours. The supernatants of the cell culture media were collected and observed for an increase or decrease in procollagen using a Procollagen type (A) kit. The test results are shown in Table 2 below, in which the effect of each compound on the procollagen synthesis is compared with that of an untreated group, taken as 100%.

[4] = 10^-4 M compound 24 h, then 4 mM t-BHP together with compound 4 h

Compound	Malonaldehyde and 4-hydroxy alkenal [1, 4]	antioxidant effect (in words) ([1]; 10^-4 M, t-BHP-treated HaCat, compared with sesamol and tocopherol)	hydrolysis by phosphatase into sesamol and 3-aminopropane phosphoric acid [2]	Procollagen Synthesis (%) [3]	effect on collagen biosynthesis (in words) ([3]; fibroblasts)	Malonaldehyde and 4-hydroxy alkenal ([1]; 4 mM t-BHP alone, 4 h)
NCCCOP(=O)(O)Oc1ccc2c(c1)OCO2 [Sesamol derivative of Example 1, sesamol, 3-aminopropane phosphoric acid diester (I)]	260	antioxidant effect similar to those of sesamol and the positive control tocopherol	can be hydrolyzed by phosphatase	125%	showed the effect of increasing collagen biosynthesis	–
Oc1ccc2c(c1)OCO2 [Sesamol, sesamol]	250	–	–	103%	–	–
CC(C)(C)OO [t-BHP, t-butyl hydroperoxide]	–	–	–	–	–	320
tocopherol	270	–	–	110%	–	–
